In patent US9199993B2, “8-azabicyclo[3.2.1]octyl-2-hydroxybenzamide compounds as mu opioid receptor antagonists” (THERAVANCE BIOPHARMA R&D IP, LLC, priority 2007, dated 2015):
Read-outs that look alike come from different tables or passages of the source.

Columns and labels:
human mu opioid receptor [1] = molecular target: T1, human mu opioid receptor (Homo sapiens, UniProt P35372); assay: biochemical; conditions: read-out: intrinsic activity (IA), bound [35S]GTPγS relative to DAMGO (IA=100)
T1 construct: host or cells: CHO-K1
T1 sequence (P35372 whole entry): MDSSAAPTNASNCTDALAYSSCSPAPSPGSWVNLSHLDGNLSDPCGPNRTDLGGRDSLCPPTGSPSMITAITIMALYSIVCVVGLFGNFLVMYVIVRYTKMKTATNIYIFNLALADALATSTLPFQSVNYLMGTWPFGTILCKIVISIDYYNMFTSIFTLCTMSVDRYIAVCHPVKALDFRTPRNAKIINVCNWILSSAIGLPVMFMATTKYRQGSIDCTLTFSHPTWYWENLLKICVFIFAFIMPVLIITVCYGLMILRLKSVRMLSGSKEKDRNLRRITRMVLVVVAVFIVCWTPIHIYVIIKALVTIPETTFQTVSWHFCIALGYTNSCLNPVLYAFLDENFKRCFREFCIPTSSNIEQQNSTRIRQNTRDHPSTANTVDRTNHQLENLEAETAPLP

human mu opioid receptor [2] = molecular target: T1, human mu opioid receptor; assay: Radioligand binding assay on human mu opioid receptor
[3] = tested on: loperamide-induced delayed gastric emptying; assay: Rat gastric emptying assay (reversal of loperamide-induced delayed gastric emptying); type: in vivo; conditions: administered orally, loperamide 1 mg/kg s.c., gastric emptying model

Row | Compound | Emax (human mu opioid receptor [1]) [%] | Ki (human mu opioid receptor [2]) [pM] | ID50, dose required for 50% reversal of the effects of loperamide [3] [mg/kg] | Ki (human mu opioid receptor [2]; displacement of [3H]-Diprenorphine 0.5 nM, CHO-K1 cell membranes, read-out: pKi at the human mu opioid receptor (converted)) [pM]
1 | CCC(CC)CN(CCN1[C@@H]2CC[C@H]1C[C@@H](c1cccc(C(N)=O)c1O)C2)C(=O)[C@@H](O)CO [Example 1, 3-endo-(8-{2-[((S)-2,3-Dihydroxypropionyl)-(2-ethylbutyl)-amino]ethyl}-8-azabicyclo[3.2.1]oct-3-yl)-2-hydroxybenzamide] | -1 | 100 | 0.11 | 
2 | CCC(CC)CN(CCN1[C@@H]2CC[C@H]1C[C@@H](c1cccc(C(N)=O)c1O)C2)C(=O)CO [Example 2, 3-endo-(8-2-[(2-Ethylbutyl)-(2-hydroxyacetyl)amino]-ethyl-8-azabicyclo[3.2.1]oct-3-yl)-2-hydroxybenzamide] |  |  |  | 100
3 | NC(=O)c1cccc(C2CC3CCC(C2)N3CCN(CC2CCC(F)(F)CC2)C(=O)CO)c1O (stereo not drawn) [Example 4, 3-endo-(8-2-[(4,4-Difluorocyclohexylmethyl)-(2-hydroxyacetyl)-amino]ethyl-8-azabicyclo[3.2.1]oct-3-yl)-2-hydroxybenzamide] |  |  | 0.014 | 
4 | CC(C)(C)CN(CCN1[C@@H]2CC[C@H]1C[C@@H](c1cccc(C(N)=O)c1O)C2)C(=O)[C@@H](O)CO [Example 6, 3-endo-(8-{2-[((S)-2,3-Dihydroxypropionyl)-(2,2-dimethylpropyl)amino]ethyl}-8-azabicyclo[3.2.1]oct-3-yl)-2-hydroxybenzamide] | 9 | 251 | 0.42 | 
